Tests used:
[1] = Inhibition of constitutively active VCAMss-Gluc secretion in human Flp-In-T-REx-293 cells measured by Gaussia luciferase reporter gene method; type: functional, cell-based
[2] = Inhibition of PD1ss-Gluc secretion in doxycyclin-induced human Flp-In-T-REx-293 cells measured by Gaussia luciferase reporter gene method; type: functional, cell-based
[3] = Inhibition of TNF-alpha-FL-Gluc secretion in doxycyclin-induced human Flp-In-T-REx-293 cells measured by Gaussia luciferase reporter gene method; type: functional, cell-based
[4] = Inhibition of constitutively active PR1ss-Gluc secretion in human Flp-In-T-REx-293 cells measured by Gaussia luciferase reporter gene method; type: functional, cell-based
[5] = Inhibition of PR1ss-Gluc secretion in doxycyclin-induced human Flp-In-T-REx-293 cells measured by Gaussia luciferase reporter gene method; type: functional, cell-based
[6] = Inhibition of constitutively active VCAMss-Gluc secretion in human Flp-In-T-REx-293 cells at 2 uM measured by Gaussia luciferase reporter gene method relative to control; type: functional
[7] = Inhibition of VCAMss-Gluc secretion in doxycyclin-induced human Flp-In-T-REx-293 cells measured by Gaussia luciferase reporter gene method; type: functional, cell-based
[8] = Inhibition of TNF-alpha-FL-Gluc secretion in doxycyclin-induced human Flp-In-T-REx-293 cells at 2.5 uM measured by Gaussia luciferase reporter gene method relative to control; type: functional
[9] = Inhibition of constitutively active VCAMss-Gluc secretion in human Flp-In-T-REx-293 cells at 2.5 uM measured by Gaussia luciferase reporter gene method relative to control; type: functional

SMILES	IC50 [2] [µM]	IC50 [3] [µM]	IC50 [5] [µM]	inhibition at 2 µM [6] [%]	also measured
CCC(C)(C)c1csc(NC(=O)Cc2cn(Cc3ccccc3)c3ccc(Cl)cc23)n1	2.2	9.8	> 25	–	IC50 [1]: 0.109 µM; IC50 [4]: > 25 µM
CC(C)(C)c1csc(NC(=O)c2ccc(C#CCCCO)s2)n1	–	–	–	53	–
CC(C)(C)c1csc(NC(=O)Cc2cn(Cc3ccccc3)c3nc(Cl)ccc23)n1	10	> 25	> 25	–	–
Cc1ccc(S(=O)(=O)Nc2nc(C(C)(C)C)cs2)cc1	–	–	–	0	–
CC(C)(C)c1csc(NC(=O)N2CCCOCC2)n1	–	–	–	0	–
CC(C)(C)c1csc(NC(=O)c2ccc(CCCO)s2)n1	–	–	–	31	–
C[C@@H](c1ccccc1Cl)n1cc(CC(=O)Nc2nc(C(C)(C)C)cs2)c2cc(Cl)ccc21	0.875	> 25	> 25	–	–
CC(C)(C)c1csc(NC(=O)Cc2cn(Cc3ccccc3)c3ccc(Cl)cc23)n1	4.25	13.1	> 25	–	IC50 [7]: 0.587 µM; IC50 [1]: 0.506 µM; IC50 [4]: > 25 µM
CC(C)(C)c1csc(NC(=O)Cc2cn(Cc3ccccc3Cl)c3ccc(Cl)cc23)n1	1.15	> 25	> 25	–	IC50 [1]: 0.147 µM; IC50 [4]: > 25 µM
CC(C)(C)Cc1csc(NC(=O)Cc2cn(Cc3ccccc3Cl)c3ccc(Cl)cc23)n1	6.18	> 25	> 25	–	–
CC(C)(C)c1csc(NC(=O)Cc2cn(C3CCCCC3)c3ccc(Cl)cc23)n1	3.36	> 25	> 25	–	–
CC(C)(C)c1csc(NC(=O)c2cc3cc(C#N)ccc3s2)n1	> 25	–	> 25	–	IC50 [7]: > 25 µM; IC50 [1]: > 25 µM; IC50 [4]: > 25 µM
COc1ccc2[nH]c(-c3ccc(C(=O)Nc4nc(C(C)(C)C)cs4)s3)cc2c1	–	–	–	–	inhibition at 2.5 µM [8]: 27%; inhibition at 2.5 µM [9]: 42%
CC(C)(C)c1csc(NC(=O)c2ccc(C#CCO)s2)n1	–	–	–	80	–
CN(C(=O)c1cc2c(s1)CCCC2)c1nc(C(C)(C)C)cs1	–	–	–	19	–
CC(C)OC(C)(C)c1csc(NC(=O)Cc2cn(Cc3ccccc3Cl)c3ccc(Cl)cc23)n1	0.715	14.8	> 25	–	–
CC(C)(C)c1csc(NC(=O)Cc2csc3ccc(C#N)cc23)n1	7.82	–	> 25	–	IC50 [7]: 1.56 µM; IC50 [1]: 1.25 µM; IC50 [4]: > 25 µM
CC(C)(C)c1csc(NC(=O)c2cc3cc(-c4ccccc4Cl)ccc3s2)n1	3.87	–	> 25	–	IC50 [7]: 9.53 µM; IC50 [1]: 4.11 µM; IC50 [4]: > 25 µM
Cc1cnccc1Cn1cc(CC(=O)Nc2nc(C(C)(C)C)cs2)c2cc(Cl)ccc21	2.68	19.1	> 25	–	–
CC(C)(C)C(=O)Nc1nc(C(C)(C)C)cs1	–	–	–	0	–
CC(C)(C)c1csc(NC(=O)c2cc3c(s2)CCCC3)n1	4.44	22.7	> 25	–	IC50 [1]: 5.35 µM; IC50 [4]: > 25 µM
CC(C)(C)c1csc(NC(=O)c2ccc3c(c2)CCCC3)n1	–	–	–	20	IC50 [1]: 10.9 µM; IC50 [4]: > 25 µM
CC(C)(C)c1csc(NC(=O)c2ccc(-c3cccnc3)s2)n1	–	–	–	19	–

SMILES	IC50 [2] [µM]	IC50 [3] [µM]	IC50 [5] [µM]	inhibition at 2 µM [6] [%]	also measured
CC(C)(C)c1csc(NC(=O)c2ccc(C#CCCCCCCCCO)s2)n1	–	–	–	52	–
CC(c1ccccc1Cl)n1cc(CC(=O)Nc2nc(C(C)(C)C)cs2)c2cc(Cl)ccc21 (stereo unspecified)	1.55	> 25	> 25	–	–
CC(C)(C)c1csc(NC(=O)Cc2cn(Cc3ccc(C#N)cc3)c3ccc(Cl)cc23)n1	4.14	23.8	> 25	–	–
Cc1cc(Cn2cc(CC(=O)Nc3nc(C(C)(C)C)cs3)c3cc(Cl)ccc32)ccn1	6.1	> 25	24	–	–
O=C(Nc1nc(-c2ccc(C(F)(F)F)cc2)cs1)c1cc2c(s1)CCCC2	–	–	–	3	–
CCC(C)(C)c1csc(NC(=O)Cc2csc3ccc(Cl)cc23)n1	2.75	–	> 25	–	IC50 [7]: 0.826 µM; IC50 [1]: 1.23 µM; IC50 [4]: > 25 µM
CC(O)C#Cc1ccc(C(=O)Nc2nc(C(C)(C)C)cs2)s1 (stereo unspecified)	–	–	–	24	–
CC(C)(C)c1csc(NC(=O)Cc2cn(Cc3ccccc3)c3ccncc23)n1	8.6	> 25	> 25	–	–
CN(C)CC#Cc1ccc(C(=O)Nc2nc(C(C)(C)C)cs2)s1	–	–	–	76	–
O=C(Nc1nc(C2CC3CCC(C3)C2)cs1)c1cc2c(s1)CCCC2 (stereo unspecified)	–	–	–	55	–
Cc1cc(C(=O)Nc2nc(C(C)(C)C)cs2)cn1Cc1ccccc1	4.74	> 25	> 25	–	–
CC(C)(C)c1csc(NC(=O)Cc2cn(C3CCc4ccccc43)c3ccc(Cl)cc23)n1 (stereo unspecified)	6.62	> 25	> 25	–	–
C#Cc1ccc(C(=O)Nc2nc(C(C)(C)C)cs2)s1	–	–	–	66	–
CC(C)(C)c1csc(NC(=O)Cc2cn(CC(=O)Nc3ccccc3O)c3ccc(Cl)cc23)n1	10.4	17.7	19.1	–	–
CC(C(=O)Nc1nc(C(C)(C)C)cs1)c1cn(Cc2ccccc2)c2ccc(Cl)cc12 (stereo unspecified)	6.06	> 25	> 25	–	–
CC(C)(C)c1csc(NC(=O)Cc2csc3ccc(Cl)cc23)n1	5.37	> 25	> 25	–	IC50 [7]: 1.11 µM; IC50 [1]: 0.915 µM; IC50 [4]: > 25 µM
CC(C)(C)c1csc(NC(=O)Cc2cn(Cc3ccccc3)c3cc(Cl)ncc23)n1	8.34	23.7	20.7	–	–
CC(C)(C)c1csc(NC(=O)c2ccc(-c3cc(Cl)cc(Cl)c3)s2)n1	–	–	–	35	–
Cn1c(C(C)(C)C)cs/c1=N\C(=O)c1cc2c(s1)CCCC2	–	–	–	63	–
COC(C)(C)c1csc(NC(=O)Cc2cn(Cc3ccccc3Cl)c3ccc(Cl)cc23)n1	1.04	13.6	> 25	–	–
CC(C)(C)c1csc(NC(=O)c2ccc(-c3cccc([N+](=O)[O-])c3)s2)n1	–	–	–	59	–
Cc1cccc2c(CC(=O)Nc3nc(C(C)(C)C)cs3)csc12	20.4	–	> 25	–	IC50 [7]: 3.56 µM; IC50 [1]: 2.42 µM; IC50 [4]: > 25 µM
Cc1ccc2c(CC(=O)Nc3nc(C(C)(C)C)cs3)csc2c1	22.2	–	> 25	–	IC50 [7]: 5.9 µM; IC50 [1]: 6.82 µM; IC50 [4]: > 25 µM

SMILES	IC50 [2] [µM]	IC50 [3] [µM]	IC50 [5] [µM]	inhibition at 2 µM [6] [%]	also measured
CC(C)(C)c1csc(NC(=O)N2CCOc3ccccc3C2)n1	–	–	–	24	IC50 [1]: 10.1 µM; IC50 [4]: > 25 µM
CC(C)(C)c1csc(NC(=O)C2CCCCC2)n1	–	–	–	30	IC50 [1]: 9.8 µM; IC50 [4]: > 25 µM
Cc1c(CC(=O)Nc2nc(C(C)(C)C)cs2)c2ccccc2n1Cc1ccccc1Cl	1.88	> 21.3	> 25	–	–
Cc1ccc2scc(CC(=O)Nc3nc(C(C)(C)C)cs3)c2c1	8.27	–	> 25	–	IC50 [7]: 2.24 µM; IC50 [1]: 1.63 µM; IC50 [4]: > 25 µM
CCC(C)(C)c1csc(NC(=O)Cc2cn(Cc3ccccc3Cl)c3ccc(Cl)cc23)n1	0.727	> 24.2	> 25	–	–
Cc1ccc(C(=O)Nc2nc(C(C)(C)C)cs2)cc1	–	–	–	9	–
CC(C)(C)c1csc(NC(=O)Cc2cn(Cc3ncccn3)c3ccc(Cl)cc23)n1	23.3	> 25	> 25	–	–
CC(C)(C)c1csc(NC(=O)Nc2nc(C(C)(C)C)cs2)n1	–	–	–	19	–
CCCC(C)(C)c1csc(NC(=O)Cc2csc3ccc(Cl)cc23)n1	1.75	–	> 25	–	IC50 [7]: 0.744 µM; IC50 [1]: 1 µM; IC50 [4]: > 25 µM
CC(C)(C)c1csc(NC(=O)Cc2cn(Cc3c(F)cccc3Cl)c3ccc(Cl)cc23)n1	6.33	> 25	> 25	–	–
CC(O)CCc1ccc(C(=O)Nc2nc(C(C)(C)C)cs2)s1 (stereo unspecified)	–	–	–	30	–
CC(C)(C)c1csc(NC(=O)Cc2cn(Cc3ccncc3)c3ccc(Cl)cc23)n1	2.76	11	> 25	–	IC50 [1]: 1.41 µM; IC50 [4]: > 25 µM
CC(C)(C)c1csc(NC(=O)Cc2cn(Cc3ncco3)c3ccc(Cl)cc23)n1	23.5	> 25	> 25	–	–
CC(C)(C)c1csc(NC(=O)Cc2cn(Cc3ccc(F)cc3)c3ccccc23)n1	12.9	–	> 25	–	IC50 [7]: 1.14 µM; IC50 [1]: 2.11 µM; IC50 [4]: > 25 µM
CC(C)(C)c1csc(NC(=O)Cc2cn(Cc3ccc(C(N)=O)cc3)c3ccc(Cl)cc23)n1	8.84	> 25	> 25	–	–
CC(C)(C)c1csc(NC(=O)c2ccc(C#C[Si](C)(C)C)s2)n1	–	–	–	54	–
CC(C)(C)c1csc(NC(=O)Cc2cn(Cc3ccc(F)cc3Cl)c3ccc(Cl)cc23)n1	1.15	> 25	> 25	–	–
CC(C)(C)c1csc(NC(=O)Cc2cn(Cc3nc4ccccc4o3)c3ccc(Cl)cc23)n1	9.71	> 25	> 25	–	–
CC(C)(C)c1csc(NC(=O)Cc2cn(Cc3ccccc3)c3ncccc23)n1	12.2	> 25	> 25	–	–
CC(C)(C)c1csc(NC(=O)c2ccc(C#CCN3CCOCC3)s2)n1	–	–	–	38	–
CC(C)(C)c1csc(NC(=O)c2ccc(C#CCCCN3CCOCC3)s2)n1	–	–	–	45	–

— ChEMBL document CHEMBL5050843, “Amide substituted thiazoles as protein secretion inhibitors” (2019)
